Converted amounts (≈) assume the structure as drawn. Counter-ions that a name gives are not always drawn.
What was measured:
P. aeruginosa PBP1a = P. aeruginosa PBP1a (Pseudomonas aeruginosa, UniProt Q07806); assay type: biochemical; details: P. aeruginosa PBP1a 60 nM, BOCILLIN FL 30 nM, pH 7.0
P. aeruginosa PBP2 = biological target: T1, P. aeruginosa PBP2 (Pseudomonas aeruginosa, UniProt Q9X6V3); assay type: biochemical; details: P. aeruginosa PBP2 300 nM, BOCILLIN FL 30 nM, pH 6.2
T1 sequence (Q9X6V3 1-646): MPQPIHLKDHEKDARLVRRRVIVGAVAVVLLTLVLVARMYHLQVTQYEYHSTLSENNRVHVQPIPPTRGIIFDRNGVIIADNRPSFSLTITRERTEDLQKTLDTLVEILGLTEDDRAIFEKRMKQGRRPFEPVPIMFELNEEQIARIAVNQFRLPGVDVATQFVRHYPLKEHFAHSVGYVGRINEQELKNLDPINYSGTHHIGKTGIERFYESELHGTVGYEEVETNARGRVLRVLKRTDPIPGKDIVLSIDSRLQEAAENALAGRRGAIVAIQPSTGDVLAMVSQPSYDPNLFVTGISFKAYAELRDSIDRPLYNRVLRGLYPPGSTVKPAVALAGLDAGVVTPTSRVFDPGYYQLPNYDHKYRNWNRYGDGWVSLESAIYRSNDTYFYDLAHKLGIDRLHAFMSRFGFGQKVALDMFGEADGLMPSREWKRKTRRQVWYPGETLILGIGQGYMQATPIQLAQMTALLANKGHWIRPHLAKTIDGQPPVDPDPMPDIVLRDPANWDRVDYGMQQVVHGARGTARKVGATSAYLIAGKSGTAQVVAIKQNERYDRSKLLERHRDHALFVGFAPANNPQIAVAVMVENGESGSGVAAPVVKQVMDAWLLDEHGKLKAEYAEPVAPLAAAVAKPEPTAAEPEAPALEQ

P. aeruginosa PBP3 = P. aeruginosa PBP3 (Pseudomonas aeruginosa, UniProt G3XD46); assay type: biochemical; details: P. aeruginosa PBP3 60 nM, BOCILLIN FL 30 nM, pH 7.0
P. aeruginosa WT (PAO1) = assay: MIC, CLSI broth microdilution, P. aeruginosa; assay type: cell-based; details: CLSI broth microdilution; for MIC: Pseudomonas aeruginosa, PAO1, read-out: P. aeruginosa WT (PAO1) MIC
E. coli (ATCC25922) = assay: MIC against E. coli; details: for MIC: Escherichia coli, ATCC25922, read-out: E. coli MIC (ATCC25922) (mg/L)
A. baumannii (ARC3495) = assay: MIC against A. baumannii; details: for MIC: Acinetobacter baumannii, read-out: A. baumannii MIC (ARC3495) (mg/L)
[1] = tested on: K. pneumoniae (ATCC700603); assay: MIC against K. pneumoniae; details: for MIC: Klebsiella pneumoniae, ATCC700603, read-out: K. pneumoniae MIC (ATCC700603)

P. aeruginosa PBP1a, sequence (Q07806 whole entry): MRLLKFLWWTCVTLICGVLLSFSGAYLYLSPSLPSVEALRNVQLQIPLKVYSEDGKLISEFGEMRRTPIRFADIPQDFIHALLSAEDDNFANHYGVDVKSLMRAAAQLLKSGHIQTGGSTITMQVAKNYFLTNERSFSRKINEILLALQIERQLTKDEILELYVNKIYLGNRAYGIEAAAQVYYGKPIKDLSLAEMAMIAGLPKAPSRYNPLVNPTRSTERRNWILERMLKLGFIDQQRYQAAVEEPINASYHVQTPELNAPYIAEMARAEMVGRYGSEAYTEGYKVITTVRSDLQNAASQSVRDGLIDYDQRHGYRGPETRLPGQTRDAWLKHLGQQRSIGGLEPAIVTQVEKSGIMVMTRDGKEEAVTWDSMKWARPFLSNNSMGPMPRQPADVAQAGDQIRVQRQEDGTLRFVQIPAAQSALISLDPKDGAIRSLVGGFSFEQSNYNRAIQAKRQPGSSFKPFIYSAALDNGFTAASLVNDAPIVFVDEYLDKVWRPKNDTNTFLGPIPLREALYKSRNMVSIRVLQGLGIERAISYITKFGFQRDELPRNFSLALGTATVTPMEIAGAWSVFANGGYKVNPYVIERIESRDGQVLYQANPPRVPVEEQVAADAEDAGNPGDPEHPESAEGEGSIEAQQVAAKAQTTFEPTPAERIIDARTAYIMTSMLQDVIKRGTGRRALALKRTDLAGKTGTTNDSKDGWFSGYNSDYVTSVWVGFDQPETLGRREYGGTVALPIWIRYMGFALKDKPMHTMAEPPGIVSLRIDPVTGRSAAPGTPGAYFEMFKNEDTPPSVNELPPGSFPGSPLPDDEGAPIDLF
P. aeruginosa PBP3, sequence (G3XD46 whole entry): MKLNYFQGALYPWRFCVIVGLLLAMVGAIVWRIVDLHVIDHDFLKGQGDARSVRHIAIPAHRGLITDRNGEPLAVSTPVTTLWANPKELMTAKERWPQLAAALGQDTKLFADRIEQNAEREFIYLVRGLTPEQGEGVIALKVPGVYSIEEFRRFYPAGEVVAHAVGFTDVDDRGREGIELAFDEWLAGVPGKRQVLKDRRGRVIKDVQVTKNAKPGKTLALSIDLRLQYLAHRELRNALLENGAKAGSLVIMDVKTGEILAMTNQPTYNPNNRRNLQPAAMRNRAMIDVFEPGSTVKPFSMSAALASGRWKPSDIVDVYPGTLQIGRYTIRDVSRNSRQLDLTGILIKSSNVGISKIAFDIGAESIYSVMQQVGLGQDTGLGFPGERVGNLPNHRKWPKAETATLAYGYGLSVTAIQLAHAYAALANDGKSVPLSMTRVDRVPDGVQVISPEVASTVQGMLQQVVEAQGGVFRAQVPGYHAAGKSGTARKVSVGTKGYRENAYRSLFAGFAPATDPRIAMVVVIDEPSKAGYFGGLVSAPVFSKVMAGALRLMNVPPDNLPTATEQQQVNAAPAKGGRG

| MIC (P. aeruginosa WT (PAO1)) [µg/mL] | MIC (E. coli (ATCC25922)) [mg/L] | MIC (A. baumannii (ARC3495)) [mg/L] | MIC [1] [µg/mL] | P. aeruginosa WT (PAO1) MIC (mg/L) (P. aeruginosa WT (PAO1)) | E. coli MIC (ATCC25922) (mg/L) (E. coli (ATCC25922)) | A. baumannii MIC (ARC3495) (mg/L) (A. baumannii (ARC3495)) | K. pneumoniae MIC (ATCC700603) [1] | SMILES | PBP1a acylation rate, k(on) (M^−1 · s^−1) (P. aeruginosa PBP1a) | PBP2 acylation rate, k(on) (M^−1 · s^−1) (P. aeruginosa PBP2) | PBP3 acylation rate, k(on) (M^−1 · s^−1) (P. aeruginosa PBP3) |
| --- | --- | --- | --- | --- | --- | --- | --- | --- | --- | --- | --- |
| 8 to 16 (≈ 22.1 to 44.2 µM) | < 8 | 8 to 16 (≈ 22.1 to 44.2 µM) | < 8 |  |  |  |  | CON/C(=N\O)[C@@H]1c2c(cnn2C)[C@@H]2CN1C(=O)N2OS(=O)(=O)O (racemic) [Example 11] | ** (** represents a k(on) of 100 to 10,000 M^−1 · s^−1) | * (* represents a k(on) < 100 M^−1 · s^−1) | *** (*** represents a k(on) > 10,000 M^−1 · s^−1) |
| > 16 | < 8 | > 16 | > 16 |  |  |  |  | CNC(=O)[C@@H]1c2c(cnn2C)[C@@H]2CN1C(=O)N2OS(=O)(=O)O [Comparator 2, reference compound] | * (* represents a k(on) < 100 M^−1 · s^−1) | * (* represents a k(on) < 100 M^−1 · s^−1) | ** (** represents a k(on) of 100 to 10,000 M^−1 · s^−1) |
| > 16 | 8 to 16 (≈ 23 to 45.9 µM) | > 16 | 8 to 16 (≈ 23 to 45.9 µM) |  |  |  |  | Cn1ncc2c1[C@@H](/C(=N/O)NO)N1C[C@@H]2N(OS(=O)(=O)O)C1=O (racemic) [Example 10] | * (* represents a k(on) < 100 M^−1 · s^−1) | * (* represents a k(on) < 100 M^−1 · s^−1) | ** (** represents a k(on) of 100 to 10,000 M^−1 · s^−1) |
| > 16 | 8 to 16 | 8 to 16 | 8 to 16 |  |  |  |  | CN(C)/C(=N\O)[C@@H]1c2c(cnn2C)[C@@H]2CN1C(=O)N2OS(=O)(=O)O [Example 2, (4R,8S)-8-((Z)—N′-hydroxy-N,N-dimethylcarbamimidoyl)-1-methyl-6-oxo-4,8-dihydro-1H-4,7-methanopyrazolo[3,4-e][1,3]diazepin-5(6H)-yl hydrogen sulfate] | ** (** represents a k(on) of 100 to 10,000 M^−1 · s^−1) | * (* represents a k(on) < 100 M^−1 · s^−1) | *** (*** represents a k(on) > 10,000 M^−1 · s^−1) |
| 8 to 16 (≈ 20.5 to 41.1 µM) | 8 to 16 (≈ 20.5 to 41.1 µM) | > 16 | 8 to 16 (≈ 20.5 to 41.1 µM) |  |  |  |  | CN/C(=N\OCCN)[C@@H]1c2c(cnn2C)[C@@H]2CN1C(=O)N2OS(=O)(=O)O (racemic) [Example 7] | * (* represents a k(on) < 100 M^−1 · s^−1) | * (* represents a k(on) < 100 M^−1 · s^−1) | ** (** represents a k(on) of 100 to 10,000 M^−1 · s^−1) |
| > 16 | < 8 | > 16 | > 16 |  |  |  |  | Cn1ncc2c1[C@@H](/C(=N/O)NCc1ccc(N)cc1)N1C[C@@H]2N(OS(=O)(=O)O)C1=O (racemic) [Example 12] | ** (** represents a k(on) of 100 to 10,000 M^−1 · s^−1) | * (* represents a k(on) < 100 M^−1 · s^−1) | ** (** represents a k(on) of 100 to 10,000 M^−1 · s^−1) |
| > 16 | < 8 | > 16 | > 16 |  |  |  |  | Cn1ncc2c1[C@@H](c1noc(=O)n1Cc1nc(N)cs1)N1C[C@@H]2N(OS(=O)(=O)O)C1=O [Example 53, (4R,8S)-8-(4-((4-aminothiazol-2-yl)methyl)-5-oxo-4,5-dihydro-1,2,4-oxadiazol-3-yl)-1-methyl-6-oxo-4,8-dihydro-1H-4,7-methanopyrazolo[3,4-e][1,3]diazepin-5(6H)-yl hydrogen sulfate] | ** (** represents a k(on) of 100 to 10,000 M^−1 · s^−1) | * (* represents a k(on) < 100 M^−1 · s^−1) | ** (** represents a k(on) of 100 to 10,000 M^−1 · s^−1) |
| > 16 | < 8 | > 16 | > 16 |  |  |  |  | CN/C(=N\OC)[C@@H]1c2c(cnn2C)[C@@H]2CN1C(=O)N2OS(=O)(=O)O [Example 4, (4R,8S)-8-((Z)—N′-methoxy-N-methylcarbamimidoyl)-1-methyl-6-oxo-4,8-dihydro-1H-4,7-methanopyrazolo[3,4-e][1,3]diazepin-5(6H)-yl hydrogen sulfate] | ** (** represents a k(on) of 100 to 10,000 M^−1 · s^−1) | * (* represents a k(on) < 100 M^−1 · s^−1) | *** (*** represents a k(on) > 10,000 M^−1 · s^−1) |
| > 16 | < 8 | > 16 | > 16 |  |  |  |  | Cn1ncc2c1[C@@H](C1=NOC(C(=O)O)C1)N1C[C@@H]2N(OS(=O)(=O)O)C1=O (mixture of isomers) [Example 35, 3-((4R,8S)-1-methyl-6-oxo-5-(sulfooxy)-4,5,6,8-tetrahydro-1H-4,7-methanopyrazolo[3,4-e][1,3]diazepin-8-yl)-4,5-dihydroisoxazole-5-carboxylic acid] | * (* represents a k(on) < 100 M^−1 · s^−1) | * (* represents a k(on) < 100 M^−1 · s^−1) | ** (** represents a k(on) of 100 to 10,000 M^−1 · s^−1) |
|  |  |  |  | * (* represents an MIC > 16 mg/L) | *** (*** represents an MIC < 8 mg/L) | * (* represents an MIC > 16 mg/L) | * (* represents an MIC > 16 mg/L) | Cn1ncc2c1[C@@H](C1=NOC(Cc3ccccc3)C1)N1C[C@@H]2N(OS(=O)(=O)O)C1=O (mixture of isomers) [Example 37] | * (* represents a k(on) < 100 M^−1 · s^−1) | * (* represents a k(on) < 100 M^−1 · s^−1) | ** (** represents a k(on) of 100 to 10,000 M^−1 · s^−1) |
| 8 to 16 (≈ 19.2 to 38.3 µM) | 8 to 16 (≈ 19.2 to 38.3 µM) | > 16 | > 16 |  |  |  |  | CN/C(=N\OCCCCN)[C@@H]1c2c(cnn2C)[C@@H]2CN1C(=O)N2OS(=O)(=O)O (racemic) [Example 6] | * (* represents a k(on) < 100 M^−1 · s^−1) | * (* represents a k(on) < 100 M^−1 · s^−1) | ** (** represents a k(on) of 100 to 10,000 M^−1 · s^−1) |
| < 8 | 8 to 16 | 8 to 16 | > 16 |  |  |  |  | CN/C(=N\O)[C@@H]1c2c(cnn2CCCCN)[C@@H]2CN1C(=O)N2OS(=O)(=O)O [Example 68, (4R,8S)-1-(4-aminobutyl)-8-((Z)—N′-hydroxy-N-methylcarbamimidoyl)-6-oxo-4,8-dihydro-1H-4,7-methanopyrazolo[3,4-e][1,3]diazepin-5(6H)-yl hydrogen sulfate] | * (* represents a k(on) < 100 M^−1 · s^−1) | * (* represents a k(on) < 100 M^−1 · s^−1) | ** (** represents a k(on) of 100 to 10,000 M^−1 · s^−1) |
| < 8 | < 8 | > 16 | < 8 |  |  |  |  | Cn1ncc2c1[C@@H](CN)N1C[C@@H]2N(OS(=O)(=O)O)C1=O [Comparator 1, reference compound] | * (* represents a k(on) < 100 M^−1 · s^−1) | *** (*** represents a k(on) > 5,000 M^−1 · s^−1) | * (* represents a k(on) < 100 M^−1 · s^−1) |
| > 16 | < 8 | > 16 | > 16 |  |  |  |  | CCN/C(=N\O)[C@@H]1c2c(cnn2C)[C@@H]2CN1C(=O)N2OS(=O)(=O)O (racemic) [Example 5] | ** (** represents a k(on) of 100 to 10,000 M^−1 · s^−1) | * (* represents a k(on) < 100 M^−1 · s^−1) | ** (** represents a k(on) of 100 to 10,000 M^−1 · s^−1) |

Source: patent US11046694B2, “Compounds and methods for treating bacterial infections” (Entasis Therapeutics, Inc., priority 2018, dated 2021)
